≈ marks a conversion by molar mass, not a printed value. Read-outs that look alike come from different tables or passages of the source.
Experiments:
[1] = tested on: bacterial strain not named; test: Raw data of the MIC measurement (absorbance); type: cell-based; settings: concentration marked (MIC) in raw absorbance data
Method: (§1) The strains were grown in Mueller-Hinton broth (MH cation-adjusted, Becton Dickinson) or Brain Heart Infusion broth (BHI, Becton Dickinson), respectively. The cultivation was carried out in an aerobic atmosphere at 37 °C for 24 hours and, afterwards, the bacterial cultures were diluted in geometric progression with a proper broth. Next, 100 µl of each dilution was inoculated in an agar plate and incubated at 37 °C for 24 h. The next procedures included determination of Colony Forming Units (CFU)/ml and minimal inhibitory concentration (MIC) of the compounds in question. The latter procedure was carried out according to the microbroth dilution technique using 96-well plates. The MICs were evaluated by using the metabolic assay based on the resazurin dye. The assay was performed in triplicates.

sheep erythrocytes = test: Erythrocyte lysis assay; type: cell-based; settings: 37 °C, 1 hour, A450 nm; for cell lysis (haemolysis): 10^8 cells/ml, vs 4% Triton X-100, triplicates
Method: The protocol of the lysis assay is presented below.
To obtain sheep erythrocytes, 5 ml of fresh blood was centrifuged at 1000 × g for 10 min and washed 3 times with 0.9% NaCl. Cell suspension (final concentration of 10^8 cells/ml) in a volume of 75 µl was added to each well of the 96-well microtiter plate and incubated at 37 °C in the presence of the tested compounds. The range of their concentrations was 100–0.049 µM (diluted in saline solution), which included that of MIC values for the tested strains of the bacteria.
Plates with samples were incubated at 37 °C for 1 hour and then centrifuged at 1000 × g for 10 min to separate the unlysed erythrocytes. Next, the supernatant was transferred to a new plate. The absorbance (A) was measured spectrophotometrically at 450 nm of wavelength. The experiments were performed in triplicates.
The haemolysis percentage was calculated according to the equation presented by Sharma et al.[43]. The percentage of haemolysis = [(A450nm of test compound treated sample-A450nm of buffer treated sample)/(A450nm of 4%TritonX-100 treated samples-A450nm of buffer treated sample)] × 100.

[2] = tested on: Enterococcus faecium 3934825; test: microbe, parasite or virus in culture; type: cell-based
From the text: (§2) Three bacterial strains of MRSA (N315, 12673, 6347) and two of Enterococcus spp. (E. faecium, E. faecalis) were used. With respect to MRSA, N315 represented a reference Van-susceptible strain (GenBank GCA_00000645.1) isolated from a patient while 12673 (Van-intermediately susceptible) and 6347 (a h-VISA which appears at frequency of <10^−5 to 10^−6 is composed of two subpopulations of bacteria: one susceptible and one intermediately resistant)[38] were clinical strains obtained from patients of The Clinical University Centre of Gdańsk (UCK). […] The clinical strain isolates originated from the collection of the Department of Pharmaceutical Technology and Biochemistry, Faculty of Chemistry, Gdańsk University of Technology.
as §1

[3] = tested on: Enterococcus faecalis 3937158; test: microbe, parasite or virus in culture; type: cell-based
From the text: as §2, §1

S. aureus MRSA N315 = test: microbe, parasite or virus in culture; type: cell-based, Staphylococcus aureus
From the text: as §2, §1

S. aureus MRSA 12673 = test: microbe, parasite or virus in culture; type: cell-based, Staphylococcus aureus; settings: for MIC: raw MIC
From the text: as §2, §1

[4] = tested on: S. aureus MRSA hetero-VISA 6347; test: microbe, parasite or virus in culture; type: cell-based, Staphylococcus aureus
From the text: as §2, §1

[5] = BBB penetration, fluorescence microscopy of brain slices; type: in vivo, BALB/c male mice; settings: iv tail vein 60 mg/kg, 2 hours, coronal cryo-sections, excitation 490 nm, emission 521 nm, n = 5
Method: In vivo experiments were performed on BALB/c male mice weighing between 20 and 30 g (the mouse model is widely used for estimation of drug BBB penetration). The animals (obtained from TAZD-CBU) were kept in a 12-hour day and night cycle at room temperature (20–22 °C), humidity 55–56% and fed with a standard diet and water ad libitum for at least 1 week before the experiment. Body temperature and weight were recorded on a regular daily schedule. It is confirmed that all procedures were carried out according to the guidelines outlined by the European Community Council Directive 2010/63/EEC, and they were approved by the local Ethical Committee Resolution 26/2014 (Bydgoszcz, Poland).
Fl-[Lys^7(PEG4-Van)]TP10 was administered to the mouse (n = 5) tail vein at a dose of 60 mg/kg in a volume of 100 μl of saline.
After 2 hours, the mice were sacrificed (by isoflurane overdose) and their brains were immediately removed from the cranium and cooled to 4 °C. Five, […] coronal cryo-sections of the brain were made starting from the frontal pole and moving to the occipital pole (HM 450 Sliding Microtome). The presence of the compound in question in the brain slices was visualized using a fluorescence microscope (Delta Optical IB-100, Delta Optical, Poland) at a fluorescence excitation and emission of 490 nm and 521 nm, respectively. […]

[6] = microbroth dilution, 96-well, resazurin, 37 °C, 24 h, mean ± SD, at least three independent experiments in triplicates
[7] = raw MIC, first block, test a, repetition 1, read-out: MIC1a
[8] = raw MIC, first block, test a, repetition 2, read-out: MIC2a
[9] = raw MIC, first block, test a, repetition 3, read-out: MIC3a
[10] = raw MIC, first block, test b, repetition 1, read-out: MIC1b
[11] = raw MIC, first block, test b, repetition 2, read-out: MIC2b
[12] = raw MIC, first block, test b, repetition 3, read-out: MIC3b
[13] = raw MIC, test a, repetition 1, read-out: MIC1a
[14] = raw MIC, test a, repetition 2, read-out: MIC2a
[15] = raw MIC, test a, repetition 3, read-out: MIC3a
[16] = raw MIC, test b, repetition 1, read-out: MIC1b
[17] = raw MIC, test b, repetition 2, read-out: MIC2b
[18] = raw MIC, test b, repetition 3, read-out: MIC3b
[19] = same test as μM value, mean ± SD

CC[C@H](C)[C@H](NC(=O)[C@H](CCCCN)NC(=O)[C@H](CCCCN)NC(=O)[C@H](C)NC(=O)[C@H](CC(C)C)NC(=O)[C@H](C)NC(=O)[C@H](C)NC(=O)[C@H](CC(C)C)NC(=O)[C@H](C)NC(=O)[C@H](CCCCN)NC(=O)[C@H](CC(C)C)NC(=O)[C@H](CC(N)=O)NC(=O)[C@@H](NC(=O)[C@H](CCCCN)NC(=O)CNC(=O)[C@H](CC(C)C)NC(=O)[C@H](CC(C)C)NC(=O)[C@H](Cc1ccc(O)cc1)NC(=O)CNC(=O)[C@H](C)NC(=O)c1cn(CCOCCOCCOCCOCCC(=O)N[C@@]2(C)C[C@H](O[C@H]3[C@H](Oc4c5cc6cc4Oc4ccc(cc4Cl)[C@@H](O)[C@@H](NC(=O)[C@@H](CC(C)C)NC)C(=O)N[C@@H](CC(N)=O)C(=O)N[C@H]6C(=O)N[C@H]4C(=O)N[C@H](C(=O)N[C@H](C(=O)O)c6cc(O)cc(O)c6-c6cc4ccc6O)[C@H](O)c4ccc(c(Cl)c4)O5)O[C@H](CO)[C@@H](O)[C@@H]3O)O[C@@H](C)[C@H]2O)nn1)[C@@H](C)CC)C(=O)N[C@@H](CC(C)C)C(N)=O [conjugate II, Van-PEG4-TP10]
MIC (marked in raw data) [1]: 1,56 µM
cell lysis (haemolysis) (sheep erythrocytes; 12.5 µM): 5%
cell lysis (haemolysis) (sheep erythrocytes; 100 µM): 77%
hemolysis at MIC concentrations (sheep erythrocytes; 6.25–0.78 μM): lack of hemolysis
MIC [2, 6]: 25.0 ± 5.1 µM (≈ 98.9 µg/mL)
MIC [2, 7]: 25 µM (≈ 98.9 µg/mL)
MIC [2, 8]: 25 µM (≈ 98.9 µg/mL)
MIC [2, 9]: 12.5 µM (≈ 49.5 µg/mL)
MIC [2, 10]: 25 µM (≈ 98.9 µg/mL)
MIC [2, 11]: 25 µM (≈ 98.9 µg/mL)
MIC [2, 12]: 25 µM (≈ 98.9 µg/mL)
MIC [2, 13]: 98.91 µM (≈ 391 µg/mL)
MIC [2, 14]: 98.91 µM (≈ 391 µg/mL)
MIC [2, 15]: 49.46 µM (≈ 196 µg/mL)
MIC [2, 16]: 98.91 µM (≈ 391 µg/mL)
MIC [2, 17]: 98.91 µM (≈ 391 µg/mL)
MIC [2, 18]: 98.91 µM (≈ 391 µg/mL)
MIC in (μg/ml) [2, 19]: 98.9 ± 20.2 µg/mL (≈ 25 µM)
MIC [3, 6]: 25.0 ± 6.5 µM (≈ 98.9 µg/mL)
MIC [3, 7]: 25 µM (≈ 98.9 µg/mL)
MIC [3, 8]: 25 µM (≈ 98.9 µg/mL)
MIC [3, 9]: 12.5 µM (≈ 49.5 µg/mL)
MIC [3, 10]: 12.5 µM (≈ 49.5 µg/mL)
MIC [3, 11]: 25 µM (≈ 98.9 µg/mL)
MIC [3, 12]: 25 µM (≈ 98.9 µg/mL)
MIC [3, 13]: 98.91 µM (≈ 391 µg/mL)
MIC [3, 14]: 98.91 µM (≈ 391 µg/mL)
MIC [3, 16]: 98.91 µM (≈ 391 µg/mL)
MIC [3, 17]: 98.91 µM (≈ 391 µg/mL)
MIC [3, 18]: 98.91 µM (≈ 391 µg/mL)
MIC in (μg/ml) [3, 19]: 98.9 ± 21.8 µg/mL (≈ 25 µM)
MIC (S. aureus MRSA N315; [6]): 1.6 ± 0.8 µM (≈ 6.33 µg/mL)
MIC (S. aureus MRSA N315; [7]): 1.6 µM (≈ 6.33 µg/mL)
MIC (S. aureus MRSA N315; [8]): 3.2 µM (≈ 12.7 µg/mL)
MIC (S. aureus MRSA N315; [9]): 1.6 µM (≈ 6.33 µg/mL)
MIC (S. aureus MRSA N315; [10]): 1.6 µM (≈ 6.33 µg/mL)
MIC (S. aureus MRSA N315; [11]): 3.2 µM (≈ 12.7 µg/mL)
MIC (S. aureus MRSA N315; [12]): 1.6 µM (≈ 6.33 µg/mL)
MIC (S. aureus MRSA N315; [13]): 6.33 µM (≈ 25 µg/mL)
MIC (S. aureus MRSA N315; [14]): 12.66 µM (≈ 50.1 µg/mL)
MIC (S. aureus MRSA N315; [15]): 6.33 µM (≈ 25 µg/mL)
MIC (S. aureus MRSA N315; [16]): 6.33 µM (≈ 25 µg/mL)
MIC (S. aureus MRSA N315; [17]): 6.33 µM (≈ 25 µg/mL)
MIC (S. aureus MRSA N315; [18]): 6.33 µM (≈ 25 µg/mL)
MIC in (μg/ml) (S. aureus MRSA N315; [19]): 6.3 ± 2.6 µg/mL (≈ 1.59 µM)
MIC (S. aureus MRSA 12673; first block, test a, repetition 1, read-out: MIC1a): 1.6 µM (≈ 6.33 µg/mL)
MIC (S. aureus MRSA 12673; first block, test a, repetition 2, read-out: MIC2a): 3.2 µM (≈ 12.7 µg/mL)
MIC (S. aureus MRSA 12673; first block, test a, repetition 3, read-out: MIC3a): 1.6 µM (≈ 6.33 µg/mL)
MIC (S. aureus MRSA 12673; first block, test b, repetition 1, read-out: MIC1b): 1.6 µM (≈ 6.33 µg/mL)
MIC (S. aureus MRSA 12673; first block, test b, repetition 2, read-out: MIC2b): 1.6 µM (≈ 6.33 µg/mL)
MIC (S. aureus MRSA 12673; first block, test b, repetition 3, read-out: MIC3b): 1.6 µM (≈ 6.33 µg/mL)
MIC (S. aureus MRSA 12673; test a, repetition 1, read-out: MIC1a): 6.33 µM (≈ 25 µg/mL)
MIC (S. aureus MRSA 12673; test a, repetition 2, read-out: MIC2a): 12.66 µM (≈ 50.1 µg/mL)
MIC (S. aureus MRSA 12673; test a, repetition 3, read-out: MIC3a): 6.33 µM (≈ 25 µg/mL)
MIC (S. aureus MRSA 12673; test b, repetition 1, read-out: MIC1b): 6.33 µM (≈ 25 µg/mL)
MIC (S. aureus MRSA 12673; test b, repetition 2, read-out: MIC2b): 6.33 µM (≈ 25 µg/mL)
MIC (S. aureus MRSA 12673; test b, repetition 3, read-out: MIC3b): 6.33 µM (≈ 25 µg/mL)
MIC in (μg/ml) (S. aureus MRSA 12673; [19]): 6.3 ± 2.6 µg/mL (≈ 1.59 µM)
MIC [4, 6]: 3.1 ± 0.8 µM (≈ 12.3 µg/mL)
MIC [4, 7]: 3.1 µM (≈ 12.3 µg/mL)
MIC [4, 8]: 3.1 µM (≈ 12.3 µg/mL)
MIC [4, 9]: 1.56 µM (≈ 6.17 µg/mL)
MIC [4, 10]: 1.56 µM (≈ 6.17 µg/mL)
MIC [4, 11]: 3.1 µM (≈ 12.3 µg/mL)
MIC [4, 12]: 1.56 µM (≈ 6.17 µg/mL)
MIC [4, 13]: 12.26 µM (≈ 48.5 µg/mL)
MIC [4, 14]: 12.26 µM (≈ 48.5 µg/mL)
MIC [4, 15]: 6.13 µM (≈ 24.3 µg/mL)
MIC [4, 16]: 6.13 µM (≈ 24.3 µg/mL)
MIC [4, 17]: 12.26 µM (≈ 48.5 µg/mL)
MIC [4, 18]: 6.13 µM (≈ 24.3 µg/mL)
MIC in (μg/ml) [4, 19]: 12.3 ± 3.6 µg/mL (≈ 3.11 µM)

Fl-[Lys^7(PEG4-Van)]TP10 [conjugate IVa]
presence in mouse brain slices (fluorescence) [5]: presence of the conjugate coupled with fluorescein in the brain

Source: PMC6397271 (Scientific Reports, 2019)
